Assay results taken from US20240246946A1, “MODULATORS OF TREX1” (Constellation Pharmaceuticals, Inc., priority 2021, published 2024).

Biological target: T1, human TREX2 (residues M44-A279) (Homo sapiens, UniProt Q9BQ50)
T1 construct: human TREX2 (residues M44-A279, expressed in E. coli); made in house; host or cells: E. coli
T1 sequence (Q9BQ50 44-279 isoform Q9BQ50-1): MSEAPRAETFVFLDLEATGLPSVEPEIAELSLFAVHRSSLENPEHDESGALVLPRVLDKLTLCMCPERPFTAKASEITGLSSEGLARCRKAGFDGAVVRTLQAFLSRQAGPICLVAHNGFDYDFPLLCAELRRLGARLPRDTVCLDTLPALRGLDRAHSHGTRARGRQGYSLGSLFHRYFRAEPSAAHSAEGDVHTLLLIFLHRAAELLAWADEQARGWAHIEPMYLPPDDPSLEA
Assay: hTREX2 Biochemical Assay (fluorescence, dsDNA substrate degradation)
Conditions: biochemical selectivity for hTREX1 vs hTREX2
Procedure, shortened: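 Fluorogenic dsDNA degradation read at 615 nm (570 nm excitation) after EDTA quench. Final 60 nM substrate, 50 pM His-Tev-tagged enzyme, 5 mM MgCl2, pH 7.4, 1.0% DMSO; 4 h compound–enzyme preincubation then 18 h reaction, both 25 °C; 10-point titration.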

| SMILES | hTREX1 vs hTREX2 selectivity |
| --- | --- |
| CC(c1nc(C(=O)Nc2cnoc2)c(O)c(=O)n1C)C(c1cnn(C)c1)c1ccccc1C#N (single isomer, unassigned) [Example 2 D1E1] | C (C = >50 fold selective for hTREX1) |
| CC(c1nc(C(=O)Nc2cnoc2)c(O)c(=O)n1C)C(c1ccccc1C#N)c1cn(C)nc1C#N (single isomer, unassigned) [Example 10 D1E1] | C (C = >50 fold selective for hTREX1) |
| CCn1cc(C(c2ccccc2C#N)C(C)c2nc(C(=O)Nc3cnoc3)c(O)c(=O)n2C)cn1 (single isomer, unassigned) [Example 13 D1E1] | C (C = >50 fold selective for hTREX1) |
| CC(c1nc(C(=O)Nc2cnoc2)c(O)c(=O)n1C)C(c1cnn(C)c1)c1cc(F)ccc1C#N (single isomer, unassigned) [Example 14 D1E2] | C (C = >50 fold selective for hTREX1) |
| CCn1cc(C(c2ccc(F)cc2C#N)C(C)c2nc(C(=O)Nc3cnoc3)c(O)c(=O)n2C)cn1 (single isomer, unassigned) [Example 16 D1E1] | C (C = >50 fold selective for hTREX1) |
| CC(c1nc(C(=O)Nc2cnoc2)c(O)c(=O)n1C)C(c1cnn(CC2CC2)c1)c1ccccc1C#N (single isomer, unassigned) [Example 23 D1E2] | C (C = >50 fold selective for hTREX1) |
| Cc1cncc(C(c2ccccc2C#N)C(C)c2nc(C(=O)Nc3cnoc3)c(O)c(=O)n2C)n1 (single isomer, unassigned) [Example 53 D1E2] | C (C = >50 fold selective for hTREX1) |
| Cc1nn(C)cc1C(c1cc(F)ccc1C#N)C(C)c1nc(C(=O)Nc2cnoc2)c(O)c(=O)n1C (single isomer, unassigned) [Example 57 D1E2] | C (C = >50 fold selective for hTREX1) |
| CC(c1nc(C(=O)Nc2cnoc2)c(O)c(=O)n1C)C(c1cnn(C)c1)c1ccccc1Cl (single isomer, unassigned) [Example 77 D1E1] | C (C = >50 fold selective for hTREX1) |
| Cc1ncc(C(c2ccccc2C#N)C(C)c2nc(C(=O)Nc3cnoc3)c(O)c(=O)n2C)nc1C (single isomer, unassigned) [Example 81 D1E2] | C (C = >50 fold selective for hTREX1) |
| CC(c1nc(C(=O)Nc2cnoc2)c(O)c(=O)n1C)C(c1ccccc1C#N)c1cn(C)nc1F (single isomer, unassigned) [Example 91 D1E1] | B (B = 25 to 50-fold selective for hTREX1) |
| CC(c1nc(C(=O)Nc2cnoc2)c(O)c(=O)n1C)C(c1cnn(C(C)C)c1)c1ccccc1C#N (single isomer, unassigned) [Example 105 D1E2] | B (B = 25 to 50-fold selective for hTREX1) |
| Cc1cc(C(c2cc(F)ccc2C#N)C(C)c2nc(C(=O)Nc3cnoc3)c(O)c(=O)n2C)n(C)n1 (single isomer, unassigned) [Example 111 D1E2] | B (B = 25 to 50-fold selective for hTREX1) |
| Cc1cnc(C(c2cc(F)ccc2C#N)C(C)c2nc(C(=O)Nc3cnoc3)c(O)c(=O)n2C)cn1 (single isomer, unassigned) [Example 115 D1E2] | B (B = 25 to 50-fold selective for hTREX1) |
| Cc1nc(C)c(C(c2ccccc2C#N)C(C)c2nc(C(=O)Nc3cnoc3)c(O)c(=O)n2C)nc1C (single isomer, unassigned) [Example 122 D1E1] | C (C = >50 fold selective for hTREX1) |
| Cc1ncc(C(c2cc(F)ccc2C#N)C(C)c2nc(C(=O)Nc3cnoc3)c(O)c(=O)n2C)nc1C (single isomer, unassigned) [Example 124 D1E2] | B (B = 25 to 50-fold selective for hTREX1) |
| Cc1ncc(C(c2ccccc2Cl)C(C)c2nc(C(=O)Nc3cnoc3)c(O)c(=O)n2C)nc1C (single isomer, unassigned) [Example 125 D1E2] | B (B = 25 to 50-fold selective for hTREX1) |
| CCn1c(C(C)C(c2cnn(C)c2)c2ccccc2C#N)nc(C(=O)Nc2cnoc2)c(O)c1=O (single isomer, unassigned) [Example 149 D1E2] | C (C = >50 fold selective for hTREX1) |
| C[C@H](c1nc(C(=O)Nc2cnoc2)c(O)c(=O)n1C)[C@@H](c1cc(F)ccc1C#N)c1cn(C)nc1C#N [Example 59 D1E2] | C (C = >50 fold selective for hTREX1) |
